Active and inactive are the calls of the source. The calls are words filed in the database; no cut-off is given here.
Tests used:
[1] = molecular target: PI3-kinase p110-alpha/p85-alpha (Homo sapiens, UniProt P42336); test: Inhibition of recombinant human N-terminal FLAG-tagged full-length p110alpha/human p85alpha expressed in Sf9 insect cells using PIP2 as substrate by kinase-glo assay
[2] = Antifibrotic activity against mouse Mlg2908 cells assessed as reduction in cell viability measured after 72 hrs by MTT assay; type: functional, cell-based
[3] = Apparent permeability across apical to basolateral side in human Caco2 cells measured after 90 mins by LC-MS/MS analysis; settings: Caco-2
[4] = Apparent permeability across basolateral to apical side in human Caco2 cells measured after 90 mins by LC-MS/MS analysis; settings: Caco-2
PI3K p110 beta/p85 alpha = PI3K p110 beta/p85 alpha (Homo sapiens, UniProt P42338); test: Inhibition of recombinant human N-terminal FLAG-tagged full-length p110beta/human p85alpha expressed in Sf9 insect cells using PIP2 as substrate by ADP-glo assay
[5] = molecular target: T1, Phosphatidylinositol 4,5-bisphosphate 3-kinase catalytic subunit gamma isoform (Homo sapiens, UniProt P48736); test: Inhibition of recombinant human N-terminal His-tagged full-length p120gamma expressed in Sf9 insect cells using PIP2 as substrate by ADP-glo assay
Target sequence in this assay (P48736 whole entry, canonical isoform): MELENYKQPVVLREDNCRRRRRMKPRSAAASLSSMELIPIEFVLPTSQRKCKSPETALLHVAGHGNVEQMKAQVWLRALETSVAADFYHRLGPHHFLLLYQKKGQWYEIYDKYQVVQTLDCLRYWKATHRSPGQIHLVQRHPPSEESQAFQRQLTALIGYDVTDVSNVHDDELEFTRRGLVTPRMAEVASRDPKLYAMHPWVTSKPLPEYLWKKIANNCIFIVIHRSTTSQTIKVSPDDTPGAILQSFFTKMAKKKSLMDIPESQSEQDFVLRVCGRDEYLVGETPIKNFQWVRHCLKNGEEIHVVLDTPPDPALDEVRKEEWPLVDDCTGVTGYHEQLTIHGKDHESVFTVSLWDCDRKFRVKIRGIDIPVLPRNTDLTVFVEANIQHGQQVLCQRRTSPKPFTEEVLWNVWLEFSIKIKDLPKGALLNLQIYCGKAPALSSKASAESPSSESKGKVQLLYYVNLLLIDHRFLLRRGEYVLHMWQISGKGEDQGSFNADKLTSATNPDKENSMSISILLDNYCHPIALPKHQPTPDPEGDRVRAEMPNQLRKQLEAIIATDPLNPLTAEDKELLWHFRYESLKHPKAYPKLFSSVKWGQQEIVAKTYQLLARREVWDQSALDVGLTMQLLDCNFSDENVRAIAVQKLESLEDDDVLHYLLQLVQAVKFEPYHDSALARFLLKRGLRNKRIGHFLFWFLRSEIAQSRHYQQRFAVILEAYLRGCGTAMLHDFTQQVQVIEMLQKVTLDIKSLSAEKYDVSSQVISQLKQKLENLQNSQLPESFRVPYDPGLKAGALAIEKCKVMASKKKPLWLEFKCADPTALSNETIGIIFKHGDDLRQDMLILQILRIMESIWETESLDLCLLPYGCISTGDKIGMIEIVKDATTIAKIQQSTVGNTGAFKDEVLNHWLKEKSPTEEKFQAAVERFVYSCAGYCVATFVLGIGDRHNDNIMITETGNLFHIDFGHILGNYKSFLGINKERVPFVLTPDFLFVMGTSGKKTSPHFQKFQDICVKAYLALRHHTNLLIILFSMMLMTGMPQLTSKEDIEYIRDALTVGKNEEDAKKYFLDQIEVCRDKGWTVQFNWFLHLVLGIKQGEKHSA

[6] = molecular target: PI3-kinase p110-delta/p85-alpha (Homo sapiens, UniProt O00329); test: Inhibition of recombinant human N-terminal GST-tagged full-length p110delta/human p85alpha expressed in Sf9 insect cells using PIP2 as substrate by ADP-glo assay
Sequence of PI3-kinase p110-delta/p85-alpha (P27986 whole entry, the tested form may be a part, canonical isoform): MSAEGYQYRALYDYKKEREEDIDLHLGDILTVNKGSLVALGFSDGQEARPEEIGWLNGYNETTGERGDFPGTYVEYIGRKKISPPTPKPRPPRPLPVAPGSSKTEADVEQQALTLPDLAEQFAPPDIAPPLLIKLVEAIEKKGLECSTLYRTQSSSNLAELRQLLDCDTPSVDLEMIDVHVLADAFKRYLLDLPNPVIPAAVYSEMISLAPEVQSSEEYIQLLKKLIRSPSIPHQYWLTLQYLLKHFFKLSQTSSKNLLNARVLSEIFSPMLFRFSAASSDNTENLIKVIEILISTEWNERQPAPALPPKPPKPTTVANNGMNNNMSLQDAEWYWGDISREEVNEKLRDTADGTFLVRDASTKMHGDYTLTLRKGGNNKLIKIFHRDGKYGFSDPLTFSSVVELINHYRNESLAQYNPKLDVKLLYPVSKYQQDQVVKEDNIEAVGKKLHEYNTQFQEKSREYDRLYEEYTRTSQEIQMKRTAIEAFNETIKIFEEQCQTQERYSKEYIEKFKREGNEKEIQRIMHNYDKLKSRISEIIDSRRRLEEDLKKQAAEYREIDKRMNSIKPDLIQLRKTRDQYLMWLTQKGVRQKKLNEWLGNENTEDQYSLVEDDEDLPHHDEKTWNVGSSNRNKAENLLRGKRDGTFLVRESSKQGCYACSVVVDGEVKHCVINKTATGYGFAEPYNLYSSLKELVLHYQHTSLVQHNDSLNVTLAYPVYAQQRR
Sequence of PI3-kinase p110-delta/p85-alpha (O00329 whole entry, the tested form may be a part, canonical isoform): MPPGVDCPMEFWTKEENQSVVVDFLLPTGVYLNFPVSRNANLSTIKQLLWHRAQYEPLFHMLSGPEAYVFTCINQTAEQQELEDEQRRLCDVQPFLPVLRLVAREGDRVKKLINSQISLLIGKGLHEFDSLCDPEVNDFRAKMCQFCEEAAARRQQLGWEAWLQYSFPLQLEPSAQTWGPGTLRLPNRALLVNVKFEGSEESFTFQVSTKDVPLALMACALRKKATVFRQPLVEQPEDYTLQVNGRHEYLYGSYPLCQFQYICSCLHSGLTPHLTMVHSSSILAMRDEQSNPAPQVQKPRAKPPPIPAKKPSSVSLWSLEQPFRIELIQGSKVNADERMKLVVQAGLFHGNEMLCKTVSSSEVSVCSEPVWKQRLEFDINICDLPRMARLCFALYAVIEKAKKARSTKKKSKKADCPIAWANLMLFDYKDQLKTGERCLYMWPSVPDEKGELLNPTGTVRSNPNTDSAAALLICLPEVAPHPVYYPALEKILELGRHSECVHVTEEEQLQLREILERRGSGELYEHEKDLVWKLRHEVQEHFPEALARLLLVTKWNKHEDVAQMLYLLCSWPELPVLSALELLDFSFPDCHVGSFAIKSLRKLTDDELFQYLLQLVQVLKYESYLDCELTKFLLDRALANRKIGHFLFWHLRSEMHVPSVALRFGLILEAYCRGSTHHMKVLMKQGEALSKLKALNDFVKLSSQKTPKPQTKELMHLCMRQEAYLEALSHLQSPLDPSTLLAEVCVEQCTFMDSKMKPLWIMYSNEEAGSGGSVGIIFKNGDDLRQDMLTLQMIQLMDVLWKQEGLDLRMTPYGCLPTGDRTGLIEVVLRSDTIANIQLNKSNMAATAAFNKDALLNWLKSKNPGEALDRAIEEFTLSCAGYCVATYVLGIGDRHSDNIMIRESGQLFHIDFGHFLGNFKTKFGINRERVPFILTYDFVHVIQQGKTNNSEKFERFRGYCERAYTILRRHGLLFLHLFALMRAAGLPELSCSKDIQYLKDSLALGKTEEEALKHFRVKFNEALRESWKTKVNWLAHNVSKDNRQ

[7] = molecular target: Phosphatidylinositol 4,5-bisphosphate 3-kinase catalytic subunit alpha isoform (Homo sapiens) (UniProt P42336); test: Binding affinity to wild-type human partial length PIK3CA (R108 to N1068 residues) expressed in mammalian expression system assessed as residual binding level at 1 uM by kinomescan assay relative to control
Sequence of Phosphatidylinositol 4,5-bisphosphate 3-kinase catalytic subunit alpha isoform (Homo sapiens) (P42336 whole entry, the tested form may be a part, canonical isoform): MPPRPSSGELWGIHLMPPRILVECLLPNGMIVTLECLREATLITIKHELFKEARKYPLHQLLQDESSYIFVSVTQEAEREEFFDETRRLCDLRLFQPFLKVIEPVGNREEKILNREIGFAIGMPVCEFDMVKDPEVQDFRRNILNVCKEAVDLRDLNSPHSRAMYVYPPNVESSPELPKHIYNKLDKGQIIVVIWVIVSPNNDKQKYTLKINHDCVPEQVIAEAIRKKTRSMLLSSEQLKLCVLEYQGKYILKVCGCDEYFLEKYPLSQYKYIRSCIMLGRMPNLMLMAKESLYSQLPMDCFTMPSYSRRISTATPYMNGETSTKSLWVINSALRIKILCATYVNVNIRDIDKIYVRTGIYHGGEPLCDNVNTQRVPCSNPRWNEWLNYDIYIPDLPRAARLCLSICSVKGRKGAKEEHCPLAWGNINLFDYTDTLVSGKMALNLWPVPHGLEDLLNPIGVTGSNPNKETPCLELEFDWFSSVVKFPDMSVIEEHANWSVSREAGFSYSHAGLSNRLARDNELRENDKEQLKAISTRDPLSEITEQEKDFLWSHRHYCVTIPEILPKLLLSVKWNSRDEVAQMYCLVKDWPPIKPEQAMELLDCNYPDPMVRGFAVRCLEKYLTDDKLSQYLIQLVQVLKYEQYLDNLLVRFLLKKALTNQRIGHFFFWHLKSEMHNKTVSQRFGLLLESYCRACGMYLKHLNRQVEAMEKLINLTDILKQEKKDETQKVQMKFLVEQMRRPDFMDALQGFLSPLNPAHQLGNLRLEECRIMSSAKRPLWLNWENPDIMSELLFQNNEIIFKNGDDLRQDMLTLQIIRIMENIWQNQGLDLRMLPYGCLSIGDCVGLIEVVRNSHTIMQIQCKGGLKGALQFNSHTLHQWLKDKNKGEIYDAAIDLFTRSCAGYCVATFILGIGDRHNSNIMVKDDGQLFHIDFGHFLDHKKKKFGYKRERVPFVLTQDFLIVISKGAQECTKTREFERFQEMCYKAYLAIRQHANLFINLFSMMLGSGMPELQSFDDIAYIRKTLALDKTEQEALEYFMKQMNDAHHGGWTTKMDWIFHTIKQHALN

[8] = molecular target: Phosphatidylinositol 4-phosphate 3-kinase C2 domain-containing subunit beta (Homo sapiens) (UniProt O00750); test: Binding affinity to wild-type human partial length PIK3C2B (M1 to L1634 residues) expressed in mammalian expression system assessed as residual binding level at 1 uM by kinomescan assay relative to control
[9] = molecular target: T1, Phosphatidylinositol 4,5-bisphosphate 3-kinase catalytic subunit gamma isoform; test: Binding affinity to wild-type human partial length PIK3CG (S144 to A1102 residues) expressed in mammalian expression system assessed as residual binding level at 1 uM by kinomescan assay relative to control
Target sequence in this assay (P48736 whole entry, looked up, canonical isoform): as the sequence (P48736 whole entry, canonical isoform) above

Mus musculus [10] = organism: Mus musculus; test: Inhibition of class 1 PI3K in mouse Mlg2908 cells assessed as reduction in AKT phosphorylation at S473 residue measured after 3 hrs by Western blot analysis; type: cell-based
Mus musculus [11] = organism: Mus musculus; test: Inhibition of class 1 PI3K in mouse Mlg2908 cells assessed as reduction in AKT phosphorylation at T308 residue measured after 3 hrs by Western blot analysis; type: cell-based
Mus musculus [12] = organism: Mus musculus; test: Inhibition of class 1 PI3K in mouse Mlg2908 cells assessed as reduction in p70S6K phosphorylation measured after 3 hrs by Western blot analysis; type: cell-based
Mus musculus [13] = organism: Mus musculus; test: Inhibition of class 1 PI3K in mouse Mlg2908 cells assessed as reduction in S6RP phosphorylation measured after 3 hrs by Western blot analysis; type: cell-based
[14] = Half life in ICR mouse at 0.5 mg/kg, iv by LC-MS/SM analysis; type: ADME, organism-based; settings: in vivo
[15] = Clearance in ICR mouse at 0.5 mg/kg, iv by LC-MS/SM analysis; type: ADME, organism-based; settings: in vivo
[16] = Volume of distribution at steady state in ICR mouse at 0.5 mg/kg, iv by LC-MS/SM analysis; type: ADME, organism-based; settings: in vivo, read-out: Vdss
[17] = AUC (0 to infinity) in ICR mouse at 0.5 mg/kg, iv by LC-MS/SM analysis; type: ADME, organism-based; design: dose 0.5 mg/kg, time infinity, route intravenous; settings: in vivo
[18] = Half life in ICR mouse at 5 mg/kg, po by LC-MS/SM analysis; type: ADME, organism-based; settings: in vivo
[19] = Cmax in ICR mouse at 5 mg/kg, po by LC-MS/SM analysis; type: ADME, organism-based; design: dose 5 mg/kg, route oral; settings: in vivo
[20] = AUC (0 to infinity) in ICR mouse at 5 mg/kg, po by LC-MS/SM analysis; type: ADME, organism-based; design: dose 5 mg/kg, route oral, time infinity; settings: in vivo
[21] = Oral bioavailability in ICR mouse at 5 mg/kg by LC-MS/SM analysis; type: ADME, organism-based; settings: in vivo
Mus musculus [22] = test: Antifibrotic activity in bleomycin-induced C57BL/6 mouse model of pulmonary fibrosis assessed as reduction in respiratory system resistance at 1 mg/kg, po administered once daily for 18 days starting from 10 days post-bleomycin challenge and measured post last dose; type: functional, organism-based
Mus musculus [23] = test: (§1) Antifibrotic activity in bleomycin-induced C57BL/6 mouse model of pulmonary fibrosis assessed as reduction in lung index at 1 mg/kg, po administered once daily for 18 days starting from 10 days post-bleomycin challenge and measured post last dose; type: functional, organism-based
Mus musculus [24] = test: Antifibrotic activity in bleomycin-induced C57BL/6 mouse model of pulmonary fibrosis assessed as reduction in inspiratory capacity at 1 mg/kg, po administered once daily for 18 days starting from 10 days post-bleomycin challenge and measured post last dose; type: functional, organism-based
Mus musculus [25] = test: Antifibrotic activity in bleomycin-induced C57BL/6 mouse model of pulmonary fibrosis assessed as reduction in respiratory system elastance at 1 mg/kg, po administered once daily for 18 days starting from 10 days post-bleomycin challenge and measured post last dose; type: functional, organism-based
Mus musculus [26] = test: Antifibrotic activity in bleomycin-induced C57BL/6 mouse model of pulmonary fibrosis assessed as reduction in respiratory system compliance at 1 mg/kg, po administered once daily for 18 days starting from 10 days post-bleomycin challenge and measured post last dose; type: functional, organism-based
Mus musculus [27] = test: as §1, with “alpha-SMA level” for “index”, “dose by immunostaining-based histopathological analysis” for “dose”; type: functional, organism-based
Mus musculus [28] = test: Antifibrotic activity in bleomycin-induced C57BL/6 mouse model of pulmonary fibrosis assessed as reduction in lung hydroxyproline level at 1 mg/kg, po administered once daily for 18 days starting from 10 days post-bleomycin challenge and measured post last dose; type: functional, organism-based
Mus musculus [29] = test: Antifibrotic activity in bleomycin-induced C57BL/6 mouse model of pulmonary fibrosis assessed as reduction in lung fibronectin level at 1 mg/kg, po administered once daily for 18 days starting from 10 days post-bleomycin challenge and measured post last dose by Western blot analysis; type: functional, organism-based
Mus musculus [30] = test: (§2) Antifibrotic activity in bleomycin-induced C57BL/6 mouse model of pulmonary fibrosis assessed as reduction in lung damage at 1 mg/kg, po administered once daily for 18 days starting from 10 days post-bleomycin challenge and measured post last dose by H and E staining-based histopathological analysis; type: functional, organism-based
Mus musculus [31] = test: as §2, with “collagen fiber deposition” for “lung damage”, “Masson” for “H and E”; type: functional, organism-based
[32] = Toxicity in po dosed C57BL/6 mouse administered as single dose via gavage measured up to 7 days; type: organism-based; settings: in vivo
[33] = Toxicity in po dosed C57BL/6 mouse administered once daily via gavage for 7 days measured post-last dose; type: organism-based; settings: in vivo
[34] = Therapeutic index, ratio of MTD in po dosed C57BL/6 mouse to compound effect for antifibrotic activity in bleomycin-induced C57BL/6 mouse model of pulmonary fibrosis; type: toxicity, organism-based; settings: in vivo, read-out: TI
[35] = Dose normalized AUC in ICR mouse at 5 mg/kg, po by LC-MS/SM analysis; type: ADME, organism-based; settings: in vivo

Sequence of PI3-kinase p110-alpha/p85-alpha (P27986 whole entry): as the sequence (P27986 whole entry, the tested form may be a part, canonical isoform) above
Sequence of PI3-kinase p110-alpha/p85-alpha (P42336 whole entry): as the sequence (P42336 whole entry, the tested form may be a part, canonical isoform) above

COc1ncc(-c2cc(OCC3(C)COC3)c3ncnc(C)c3c2)cc1NS(=O)(=O)c1ccc(F)cc1F
IC50 [1]: 0.87 nM | IC50 [2]: 5 nM | Papp A→B at 1.5 h [3]: 46 ×10⁻⁶ cm/s | Papp B→A at 1.5 h [4]: 36 ×10⁻⁶ cm/s | IC50 (PI3K p110 beta/p85 alpha): 0.7 nM | IC50 [5]: 1.6 nM | IC50 [6]: 1.1 nM | Activity [7]: 0% | Activity [8]: 0% | Activity [9]: 0% | inhibition (Mus musculus [10]): Dose-dependent effect | inhibition (Mus musculus [11]): Dose-dependent effect | inhibition (Mus musculus [12]): Dose-dependent effect | inhibition (Mus musculus [13]): Dose-dependent effect | half-life [14]: 0.66 h | clearance [15]: 12.8 mL/min/kg | Vd [16]: 0.733 L/kg | AUC(0-inf) [17]: 651 ng·h/mL | half-life [18]: 4.98 h | Cmax [19]: 1220 ng/mL | AUC(0-inf) [20]: 3670 ng·h/mL | bioavailability [21]: 53.1% | Activity (Mus musculus [22]): Active | Activity (Mus musculus [23]): Active | Activity (Mus musculus [24]): Active | Activity (Mus musculus [25]): Active | Activity (Mus musculus [26]): Active | Activity (Mus musculus [27]): Active | Activity (Mus musculus [28]): Active | Activity (Mus musculus [29]): Active | Activity (Mus musculus [30]): Active | Activity (Mus musculus [31]): Active | MTD at 168 h [32]: > 30 mg/kg | MTD at 168 h [33]: > 10 mg/kg | selectivity ratio [34]: > 10 | AUC/dose [35]: 734 ng·h/mL per mg/kg
